Assay results reported in ChEMBL document CHEMBL5465560, “Selectivity Literature for EUbOPEN Chemogenomic Library” (2024).

Legend:
[1] = target: Tyrosine-protein kinase Yes (Homo sapiens) (UniProt P07947); experiment: Selectivity interaction (KinomeScan (DiscoverX)) EUB0001049a YES1; settings: at 1 µM
[2] = target: T1, Receptor-interacting serine/threonine-protein kinase 1 (Homo sapiens) (UniProt Q13546); experiment: Selectivity interaction (Ambit KINOMEscan and KiNATiv profiling in Jurkat cells) EUB0000090b RIPK1; format: cell-based; settings: at 1 µM
T1 sequence (whole entry): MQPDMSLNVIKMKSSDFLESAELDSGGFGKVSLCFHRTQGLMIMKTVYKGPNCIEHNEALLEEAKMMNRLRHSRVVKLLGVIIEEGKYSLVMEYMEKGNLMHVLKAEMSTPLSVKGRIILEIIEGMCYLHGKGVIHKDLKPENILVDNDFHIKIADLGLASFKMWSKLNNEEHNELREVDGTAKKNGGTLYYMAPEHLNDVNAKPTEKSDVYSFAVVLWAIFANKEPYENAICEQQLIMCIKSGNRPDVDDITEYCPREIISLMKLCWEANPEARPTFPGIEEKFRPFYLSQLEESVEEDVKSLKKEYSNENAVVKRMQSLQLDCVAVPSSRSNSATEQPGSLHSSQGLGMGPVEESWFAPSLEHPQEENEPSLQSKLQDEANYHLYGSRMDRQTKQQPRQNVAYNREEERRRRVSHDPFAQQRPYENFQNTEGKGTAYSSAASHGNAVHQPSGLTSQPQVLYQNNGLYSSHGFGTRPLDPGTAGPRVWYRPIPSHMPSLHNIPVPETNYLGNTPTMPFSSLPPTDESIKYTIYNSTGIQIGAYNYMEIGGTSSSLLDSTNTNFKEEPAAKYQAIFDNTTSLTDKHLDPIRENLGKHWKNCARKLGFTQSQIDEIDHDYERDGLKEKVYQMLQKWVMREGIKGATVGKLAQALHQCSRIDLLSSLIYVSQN

[3] = target: Ribosomal protein S6 kinase alpha-1 (Homo sapiens, UniProt Q15418); experiment: Selectivity interaction (ActivX KiNativ screen (kinase selectivity in THP-1 cell lysates)) EUB0000639a RPS6KA1; format: subcellular; settings: lysate, at 0.2 µM
[4] = target: Serine/threonine-protein kinase haspin (Homo sapiens, UniProt Q8TF76); experiment: Selectivity interaction (Enzymatic assay) EUB0001550a GSG2
[5] = Selectivity interaction (Kinase panel (Enzyme activity assay)) EUB0000612a IGF1
[6] = target: Phosphatidylinositol 4-kinase beta (Homo sapiens, UniProt Q9UBF8); experiment: Selectivity interaction (KinomeScan (DiscoverX)) EUB0000595a PI4KB; settings: at 10 µM
[7] = target: Angiopoietin-1 receptor (Homo sapiens) (UniProt Q02763); experiment: Selectivity interaction (KinomeScan (DiscoverX)) EUB0000595a TEK; settings: at 10 µM
[8] = target: Serine/threonine-protein kinase NIM1 (Homo sapiens, UniProt Q8IY84); experiment: Selectivity interaction (KinomeScan (DiscoverX)) EUB0000229b NIM1K; settings: at 10 µM
[9] = tested on: Epidermal growth factor receptor (Homo sapiens), P00533 [G719C]; experiment: (§1) Selectivity interaction (ProQinase) EUB0000171b EGFR
[10] = tested on: Epidermal growth factor receptor (Homo sapiens), P00533 [G719S]; experiment: as §1
[11] = tested on: Epidermal growth factor receptor (Homo sapiens), P00533 [L858R,T790M]; experiment: as §1
[12] = tested on: Epidermal growth factor receptor (Homo sapiens), P00533 [L858R]; experiment: as §1
[13] = tested on: Epidermal growth factor receptor (Homo sapiens), P00533 [L861Q]; experiment: as §1
[14] = tested on: Epidermal growth factor receptor (Homo sapiens), P00533 [T790M]; experiment: as §1
[15] = tested on: Epidermal growth factor receptor (Homo sapiens), P00533 [UNDEFINED MUTATION]; experiment: as §1
[16] = target: Epidermal growth factor receptor (Homo sapiens, UniProt P00533); experiment: as §1
[17] = target: T2, Atypical kinase COQ8B, mitochondrial (Homo sapiens) (UniProt Q96D53); experiment: Selectivity interaction (KinomeScan (DiscoverX)) EUB0000666a ADCK4; settings: at 10 µM
T2 sequence (whole entry): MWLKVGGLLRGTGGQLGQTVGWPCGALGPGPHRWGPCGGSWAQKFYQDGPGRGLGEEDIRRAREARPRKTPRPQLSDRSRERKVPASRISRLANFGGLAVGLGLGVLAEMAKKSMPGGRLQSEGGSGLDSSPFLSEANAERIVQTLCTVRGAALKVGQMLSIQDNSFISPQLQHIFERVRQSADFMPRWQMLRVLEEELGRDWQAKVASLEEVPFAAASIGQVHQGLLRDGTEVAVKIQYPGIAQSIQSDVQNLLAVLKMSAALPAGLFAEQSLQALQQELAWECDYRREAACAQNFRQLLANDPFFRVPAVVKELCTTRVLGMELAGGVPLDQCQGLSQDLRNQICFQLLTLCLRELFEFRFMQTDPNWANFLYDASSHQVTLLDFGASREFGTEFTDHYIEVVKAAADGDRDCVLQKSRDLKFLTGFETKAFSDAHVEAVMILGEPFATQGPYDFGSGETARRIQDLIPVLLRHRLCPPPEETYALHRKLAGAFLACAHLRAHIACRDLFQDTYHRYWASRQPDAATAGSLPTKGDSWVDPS

Sequence of Epidermal growth factor receptor (Homo sapiens), P00533 [L858R,T790M] (P00533 whole entry T790M/L858R, looked up): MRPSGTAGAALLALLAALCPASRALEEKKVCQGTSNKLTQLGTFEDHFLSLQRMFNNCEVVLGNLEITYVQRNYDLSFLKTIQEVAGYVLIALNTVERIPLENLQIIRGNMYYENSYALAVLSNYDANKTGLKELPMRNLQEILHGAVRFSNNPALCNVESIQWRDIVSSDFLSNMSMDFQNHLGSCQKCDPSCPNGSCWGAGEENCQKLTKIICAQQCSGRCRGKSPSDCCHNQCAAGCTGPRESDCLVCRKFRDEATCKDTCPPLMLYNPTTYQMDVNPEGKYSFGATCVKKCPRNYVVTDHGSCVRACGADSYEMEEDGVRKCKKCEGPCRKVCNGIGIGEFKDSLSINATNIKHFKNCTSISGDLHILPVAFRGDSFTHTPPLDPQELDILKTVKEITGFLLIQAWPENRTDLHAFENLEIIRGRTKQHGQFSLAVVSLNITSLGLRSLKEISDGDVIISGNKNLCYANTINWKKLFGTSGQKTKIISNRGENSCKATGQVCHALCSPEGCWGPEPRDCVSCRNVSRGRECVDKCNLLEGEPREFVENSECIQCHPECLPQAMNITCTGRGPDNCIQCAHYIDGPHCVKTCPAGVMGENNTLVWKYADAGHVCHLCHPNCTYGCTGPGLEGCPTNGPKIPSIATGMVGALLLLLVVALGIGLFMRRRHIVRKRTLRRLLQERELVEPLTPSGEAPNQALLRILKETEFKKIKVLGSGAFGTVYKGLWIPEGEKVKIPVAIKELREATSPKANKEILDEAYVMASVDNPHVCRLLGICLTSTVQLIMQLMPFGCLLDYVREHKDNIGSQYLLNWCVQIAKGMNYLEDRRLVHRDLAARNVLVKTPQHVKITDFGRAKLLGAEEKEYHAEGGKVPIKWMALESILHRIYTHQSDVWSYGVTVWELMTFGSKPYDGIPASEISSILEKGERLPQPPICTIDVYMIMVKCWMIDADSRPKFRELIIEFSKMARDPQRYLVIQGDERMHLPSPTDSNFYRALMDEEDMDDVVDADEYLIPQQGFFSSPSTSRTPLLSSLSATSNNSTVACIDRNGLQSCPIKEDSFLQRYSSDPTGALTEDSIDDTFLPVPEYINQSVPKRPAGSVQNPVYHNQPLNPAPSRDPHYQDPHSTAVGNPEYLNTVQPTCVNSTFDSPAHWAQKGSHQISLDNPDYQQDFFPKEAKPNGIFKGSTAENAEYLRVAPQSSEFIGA
Sequence of Epidermal growth factor receptor (Homo sapiens), P00533 [UNDEFINED MUTATION] (P00533 whole entry, looked up, change not shown): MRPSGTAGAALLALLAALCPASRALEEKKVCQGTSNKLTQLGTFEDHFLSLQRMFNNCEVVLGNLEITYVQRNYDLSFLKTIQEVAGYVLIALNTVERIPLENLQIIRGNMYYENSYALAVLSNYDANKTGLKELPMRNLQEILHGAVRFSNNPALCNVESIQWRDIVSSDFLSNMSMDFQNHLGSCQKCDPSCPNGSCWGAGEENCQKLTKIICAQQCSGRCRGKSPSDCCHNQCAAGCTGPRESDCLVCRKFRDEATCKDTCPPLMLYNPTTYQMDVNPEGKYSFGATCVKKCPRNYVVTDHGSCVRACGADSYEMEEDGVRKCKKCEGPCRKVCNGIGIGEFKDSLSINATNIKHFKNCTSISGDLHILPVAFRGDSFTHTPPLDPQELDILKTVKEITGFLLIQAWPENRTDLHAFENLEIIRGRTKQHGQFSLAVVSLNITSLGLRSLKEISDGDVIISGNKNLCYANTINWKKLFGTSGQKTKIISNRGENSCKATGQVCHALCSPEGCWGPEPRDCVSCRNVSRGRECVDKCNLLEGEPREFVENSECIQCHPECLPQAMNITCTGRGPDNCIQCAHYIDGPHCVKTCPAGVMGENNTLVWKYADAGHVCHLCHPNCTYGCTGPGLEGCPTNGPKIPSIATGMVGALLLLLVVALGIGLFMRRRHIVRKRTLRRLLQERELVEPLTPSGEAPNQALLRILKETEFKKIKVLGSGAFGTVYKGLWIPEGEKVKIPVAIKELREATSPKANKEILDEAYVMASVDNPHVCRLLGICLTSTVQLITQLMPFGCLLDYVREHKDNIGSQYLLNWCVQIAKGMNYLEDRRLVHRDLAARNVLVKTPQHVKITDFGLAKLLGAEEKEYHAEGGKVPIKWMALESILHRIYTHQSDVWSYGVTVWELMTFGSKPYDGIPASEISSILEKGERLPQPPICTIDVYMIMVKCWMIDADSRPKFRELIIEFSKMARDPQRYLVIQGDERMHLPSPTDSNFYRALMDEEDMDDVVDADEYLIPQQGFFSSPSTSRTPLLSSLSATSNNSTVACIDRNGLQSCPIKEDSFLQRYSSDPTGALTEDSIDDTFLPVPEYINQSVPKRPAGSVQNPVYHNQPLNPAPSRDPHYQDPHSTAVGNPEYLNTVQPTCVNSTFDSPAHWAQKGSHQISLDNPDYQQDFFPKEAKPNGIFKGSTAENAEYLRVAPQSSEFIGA
Sequence of Epidermal growth factor receptor (P00533 whole entry): as the sequence (P00533 whole entry, looked up, change not shown) above
Sequence of Epidermal growth factor receptor (Homo sapiens), P00533 [G719S] (P00533 whole entry G719S): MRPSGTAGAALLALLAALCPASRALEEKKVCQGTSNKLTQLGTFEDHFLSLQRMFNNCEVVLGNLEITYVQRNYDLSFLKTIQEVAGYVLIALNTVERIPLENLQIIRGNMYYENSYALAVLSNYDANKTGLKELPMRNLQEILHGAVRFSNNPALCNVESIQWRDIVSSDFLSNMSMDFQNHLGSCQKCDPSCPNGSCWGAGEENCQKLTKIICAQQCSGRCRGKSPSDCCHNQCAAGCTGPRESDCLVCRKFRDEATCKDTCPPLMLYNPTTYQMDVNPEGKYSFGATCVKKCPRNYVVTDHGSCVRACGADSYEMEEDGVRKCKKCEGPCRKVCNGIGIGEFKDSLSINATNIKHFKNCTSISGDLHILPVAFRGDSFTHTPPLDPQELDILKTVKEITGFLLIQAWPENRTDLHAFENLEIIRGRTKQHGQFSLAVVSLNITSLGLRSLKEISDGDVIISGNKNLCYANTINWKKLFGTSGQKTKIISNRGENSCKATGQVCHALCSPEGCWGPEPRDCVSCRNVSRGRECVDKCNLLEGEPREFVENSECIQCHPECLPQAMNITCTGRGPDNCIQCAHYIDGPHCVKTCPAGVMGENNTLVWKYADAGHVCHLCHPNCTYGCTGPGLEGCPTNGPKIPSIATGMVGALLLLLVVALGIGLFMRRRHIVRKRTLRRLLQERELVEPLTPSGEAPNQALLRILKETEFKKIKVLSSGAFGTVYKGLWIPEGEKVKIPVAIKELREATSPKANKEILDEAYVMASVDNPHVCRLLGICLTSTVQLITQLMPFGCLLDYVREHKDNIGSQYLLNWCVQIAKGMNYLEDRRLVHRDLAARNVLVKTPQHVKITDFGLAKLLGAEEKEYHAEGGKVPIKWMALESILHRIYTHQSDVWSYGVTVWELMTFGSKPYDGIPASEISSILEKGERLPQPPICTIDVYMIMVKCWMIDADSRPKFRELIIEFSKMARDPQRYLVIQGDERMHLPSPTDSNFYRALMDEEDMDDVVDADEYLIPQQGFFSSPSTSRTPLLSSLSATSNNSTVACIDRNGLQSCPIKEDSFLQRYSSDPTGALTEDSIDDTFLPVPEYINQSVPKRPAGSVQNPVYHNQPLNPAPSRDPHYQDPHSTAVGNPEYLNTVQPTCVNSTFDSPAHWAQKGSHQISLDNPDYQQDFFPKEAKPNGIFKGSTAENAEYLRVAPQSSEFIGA

## COc1cc(Nc2nc(C)cc(-c3cnn4nc(OC)ccc34)n2)cc(C(F)(F)F)c1
[1]
  % of control: 80%

## CN(C)C/C=C/C(=O)Nc1ccc(C(=O)N2CCCC(Nc3ncc(Cl)c(-c4c[nH]c5ccccc45)n3)C2)cc1 (stereo not given)
[2]
  % of control: 94%

## CC[C@@H]1[C@H](F)C(=O)N[C@@H]1COc1nccc2cc(C(N)=O)c(OC)cc12 [ZIMLOVISERTIB]
[3]
  % of inhibition: 10.3%

## CN(C)CC#Cc1ccc2[nH]c3c(c2c1)-c1nc(N)ncc1CCC3
[4]
  IC50: 1.4 µM

## CCc1cccc(CC)c1NC(=O)c1nn(C)c2c1CCc1cnc(Nc3ccc(C(=O)NC4CCN(C)CC4)cc3OC(F)(F)F)nc1-2
[5]
  IC50: > 10 µM

## COCC(=O)NC/C=C/c1ccc2ncnc(Nc3ccc(Oc4ccc(C)nc4)c(C)c3)c2c1 [CP-724714]
[6]
  % of control: 100%
[7]
  % of control: 100%

## COc1cc(N(C)c2ccnc3ccc(C(F)(F)F)cc23)cc(OC)c1OC
[8]
  % binding: 100%

## C=CC(=O)Nc1cccc(C(=O)Nc2ccc(Nc3cc(-c4[nH]c(SC)nc4C)ccn3)cc2)c1
[9]; at 1 µM
  % of control: 96%
[9]; at 5 µM
  % of control: 75%
[10]; at 1 µM
  % of control: 88%
[10]; at 5 µM
  % of control: 97%
[11]; at 1 µM
  % of control: 96%
[11]; at 5 µM
  % of control: 96%
[12]; at 1 µM
  % of control: 95%
[12]; at 5 µM
  % of control: 83%
[13]; at 1 µM
  % of control: 104%
[13]; at 5 µM
  % of control: 91%
[14]; at 1 µM
  % of control: 91%
[14]; at 5 µM
  % of control: 84%
[15]; at 1 µM
  % of control: 115%
[15]; at 5 µM
  % of control: 88%
[16]; at 1 µM
  % of control: 108%
[16]; at 5 µM
  % of control: 101%

## O=C(NOC[C@H](O)CO)c1ccc(F)c(F)c1Nc1ccc(I)cc1F
[17]
  % of control: 100%
